# Experimental data: patent publication US20190263796A1, “LIM KINASE INHIBITORS, PHARMACEUTICAL COMPOSITION AND METHOD OF USE IN LIMK-MEDIATED DISEASES” (CELLIPSE, priority 2016, published 2019)
# Read-outs that look alike come from different tables or passages of the source.
# Tests used:
# [1] = system: Phospho-Ser3-Cofilin/Total Cofilin; assay: Western blot cofilin phosphorylation, MV4-11 (II.6); type: cell-based; details: MV4-11 cells
# Protocol: (§1) MV4-11 cell line was originally purchased from the American Type Culture Collection (ATCC) or from the Leibniz-Institut Deutsche Sammlung von Mikroorganismen und Zellkulturen GmbH (DSMZ). MV4-11 cells are cultured in RPMI 1640 20% (v/v) FBS supplemented with 100 U/mL^−1 penicillin, 0.1 mg·mL^−1 streptomycin (PAN Biotech P06-07100) and 2 mM Glutamine (Sigma-Aldrich 59202C). Cells were maintained at 37° C. with 5% CO2.
# (§2) In a 6 wells plate (Falcon 353046), 2·10^6 cells in 1.5 mL medium are treated for 2 h with compounds. Cells are then collected and cell lysis is performed at 4° C. using RIPA buffer supplemented with protease inhibitors cocktail (Sigma-Aldrich P8340) and phosphatase inhibitors cocktail (Sigma-Aldrich P5726). Following centrifugation 30 min 15000 g 4° C., supernatants are mixed with Laemmli buffer and denaturation is performed by heating 5 min 95° C. 10 μL of samples are subjected to electrophoresis on 15% SDS-PAGE. After electro-transfer (Mini Transblot, Bio-Rad), the PVDF membrane (Merck-Millipore Immobilon P IPVH00010) is blocked with Tris Buffered Saline, pH 7.4 (TBS) with 0.1% Tween 20 and 5% BSA for 1 h RT under agitation. The membrane was rinsed 3 times 10 min at room temperature under agitation with TBS, 0.1% Tween-20 (TBST) and then 1 h at room temperature with anti-phospho-Ser3-cofilin (Cell Signaling Technology #3313, 1/1000 dilution) antibody or anti-cofilin (Cell Signaling Technology #3312, 1/1000 dilution) diluted in TBS, 0.1% Tween 20 and 1% BSA. The membrane is then rinsed 3 times 10 min at room temperature under agitation in TBST and incubated for 1 h with anti-rabbit secondary antibody, horseradish peroxidase conjugated (Jackson Immunoresearch #711-036-152) under agitation at room temperature. After three washes 10 min at room temperature in TBST, the detection of total or phosphorylated cofilin was performed using chemiluminescence kit ECL™ Plus (GE Healthcare RPN2132). For each concentration of compound, ratio between phosphorylated cofilin and total cofilin is determined. This ratio is then expressed as percentage of control ratio (i.e., ratio from DMSO treated cells). IC50 Phospho-Ser3-Cofilin/Total Cofilin is then determined.
# [2] = system: Phospho-Ser3-Cofilin/Total Cofilin; assay: Western blot cofilin phosphorylation, K-562; type: cell-based; details: Homo sapiens; K562 cells; 2 h
# Protocol: (§3) K-562 cell line was originally purchased from the Leibniz-Institut Deutsche Sammlung von Mikroorganismen und Zellkulturen GmbH (DSMZ). K-562 cells are cultured in RPMI 1640 10% (v/v) FBS supplemented with 100 U/mL^−1 penicillin, 0.1 mg·mL^−1 streptomycin (PAN Biotech P06-07100). Cells were maintained at 37° C. with 5% CO2.
# as §2
# [3] = system: Phospho-Ser3-Cofilin/Total Cofilin; assay: Western blot cofilin phosphorylation, MOLM-14; type: cell-based; details: MOLM-14 cells, 2 h
# Protocol: MOLM-14 cell line was originally purchased from the American Type Culture Collection (ATCC). MOLM-14 cells are cultured in MEM alpha 10% (v/v) FBS supplemented with 100 U/mL^−1 penicillin, 0.1 mg·mL^−1 streptomycin (PAN Biotech P06-07100). Cells were maintained at 37° C. with 5% CO2.
# as §2
# [4] = system: P-MEK/Total MEK; assay: Western blot MEK1 phosphorylation, MV4-11; type: cell-based; details: for IC50: read-out: IC50 P-MEK/Total MEK; for Selectivity ratio: IC50 P-MEK/Total MEK divided by IC50 Phospho-Ser3-Cofilin/Total Cofilin
# Protocol: as §1
# (§4) In a 6 wells plate (Falcon 353046), 2·10^6 cells in 1.5 mL medium are treated for 2 h with compounds. Cells are then collected and cell lysis is performed at 4° C. using RIPA buffer supplemented with protease inhibitors cocktail (Sigma-Aldrich P8340) and phosphatase inhibitors cocktail (Sigma-Aldrich P5726). Following centrifugation 30 min 15000 g 4° C., supernatants are mixed with Laemmli buffer and denaturation is performed by heating 5 min 95° C. 10 μL of samples are subjected to electrophoresis on 15% SDS-PAGE. After electro-transfer (Mini Transblot, Bio-Rad), the PVDF membrane (Merck-Millipore Immobilon P IPVH00010) is blocked with Tris Buffered Saline, pH 7.4 (TBS) with 0.1% Tween 20 and 5% BSA for 1 h at room temperature under agitation. The membrane was rinsed 3 times 10 min at room temperature under agitation with TBS, 0.1% Tween-20 (TBST) and then 1 h at room temperature with anti-phospho-Ser218/222-MEK1 (Merck-Millipore 07-461, 1/1000 dilution) antibody or anti-MEK1 (Merck-Millipore 07-641, 1/1000 dilution) diluted in TBS, 0.1% Tween 20 and 1% BSA. The membrane is then rinsed 3 times 10 min RT under agitation in TBST and incubated for 1 h with anti-rabbit secondary antibody, horseradish peroxidase conjugated (Jackson Immunoresearch #711-036-152) under agitation at room temperature. After three washes 10 min at room temperature in TBST, the detection of total or phosphorylated cofilin was performed using chemiluminescence kit ECL™ Plus (GE Healthcare RPN2132). For each concentration of compound, ratio between phosphorylated cofilin and total cofilin is determined. This ratio is then expressed as percentage of control ratio (i.e., ratio from DMSO treated cells). IC50 P-MEK/Total MEK is then determined.
# (§5) Selectivity ratios are calculated by dividing the IC50 P-MEK/Total MEK value (μM) by the IC50 Phospho-Ser3-Cofilin/Total Cofilin value (μM).
# [5] = system: P-MEK/Total MEK; assay: Western blot MEK1 phosphorylation, K-562; type: cell-based; details: for IC50: Homo sapiens, read-out: IC50 P-MEK/Total MEK; for Selectivity ratio: IC50 P-MEK/Total MEK divided by IC50 Phospho-Ser3-Cofilin/Total Cofilin
# Protocol: as §3, §4, §5
# [6] = molecular target: B-Raf(h) (Homo sapiens, UniProt P15056); assay: B-Raf kinase assay (Eurofins Panlabs, radiometric); type: biochemical; set-up: purchased Eurofins Panlabs Inc. (contract assay service)
# Protocol: IC50 B-Raf is then determined.
# Selectivity ratios are calculated by dividing the IC50 B-Raf (nM) by the IC50 LIMK1 (nM).
# [7] = molecular target: LIMK1(h) (Homo sapiens, UniProt P53667); assay: LIMK1 kinase assay (Eurofins Panlabs, radiometric); type: biochemical; set-up: purchased Eurofins Panlabs Inc. (contract assay service)
# Protocol: Compounds were tested in a LIMK1 assay performed by Eurofins Panlabs Inc. LIMK1 (h) is incubated with 8 mM MOPS pH 7.0, 0.2 mM EDTA, 0.6 mg/mL cofilin, 10 mM Magnesium acetate and [gamma-33P]-ATP. The reaction is initiated by the addition of the Mg/ATP mix. After incubation for 40 min at room temperature, the reaction is stopped by the addition of phosphoric acid to a concentration of 0.5%. […] IC50 LIMK1 is then determined.
# [8] = 120 μM ATP, Table 8, read-out: IC50 B-Raf
# [9] = IC50 B-Raf (nM) divided by IC50 LIMK1 (nM), Table 8
# LIMK1(h), sequence (P53667 whole entry): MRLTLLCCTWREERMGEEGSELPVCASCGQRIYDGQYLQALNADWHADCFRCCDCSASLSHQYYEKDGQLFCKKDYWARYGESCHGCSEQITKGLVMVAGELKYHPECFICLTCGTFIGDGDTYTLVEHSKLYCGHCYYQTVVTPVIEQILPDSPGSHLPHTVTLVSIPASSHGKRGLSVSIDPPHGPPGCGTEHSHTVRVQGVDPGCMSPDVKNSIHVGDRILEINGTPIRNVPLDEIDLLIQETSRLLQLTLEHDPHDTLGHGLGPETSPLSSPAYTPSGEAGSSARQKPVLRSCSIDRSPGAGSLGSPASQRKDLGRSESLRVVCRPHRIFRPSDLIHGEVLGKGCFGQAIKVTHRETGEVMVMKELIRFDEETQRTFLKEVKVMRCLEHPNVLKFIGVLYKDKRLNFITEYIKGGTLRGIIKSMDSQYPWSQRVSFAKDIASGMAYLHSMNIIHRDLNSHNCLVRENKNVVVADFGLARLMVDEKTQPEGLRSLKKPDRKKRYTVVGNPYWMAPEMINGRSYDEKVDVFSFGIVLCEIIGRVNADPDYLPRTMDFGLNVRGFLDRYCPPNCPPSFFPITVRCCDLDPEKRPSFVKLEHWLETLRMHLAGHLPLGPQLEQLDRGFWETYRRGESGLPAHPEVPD
# B-Raf(h), sequence (P15056 whole entry): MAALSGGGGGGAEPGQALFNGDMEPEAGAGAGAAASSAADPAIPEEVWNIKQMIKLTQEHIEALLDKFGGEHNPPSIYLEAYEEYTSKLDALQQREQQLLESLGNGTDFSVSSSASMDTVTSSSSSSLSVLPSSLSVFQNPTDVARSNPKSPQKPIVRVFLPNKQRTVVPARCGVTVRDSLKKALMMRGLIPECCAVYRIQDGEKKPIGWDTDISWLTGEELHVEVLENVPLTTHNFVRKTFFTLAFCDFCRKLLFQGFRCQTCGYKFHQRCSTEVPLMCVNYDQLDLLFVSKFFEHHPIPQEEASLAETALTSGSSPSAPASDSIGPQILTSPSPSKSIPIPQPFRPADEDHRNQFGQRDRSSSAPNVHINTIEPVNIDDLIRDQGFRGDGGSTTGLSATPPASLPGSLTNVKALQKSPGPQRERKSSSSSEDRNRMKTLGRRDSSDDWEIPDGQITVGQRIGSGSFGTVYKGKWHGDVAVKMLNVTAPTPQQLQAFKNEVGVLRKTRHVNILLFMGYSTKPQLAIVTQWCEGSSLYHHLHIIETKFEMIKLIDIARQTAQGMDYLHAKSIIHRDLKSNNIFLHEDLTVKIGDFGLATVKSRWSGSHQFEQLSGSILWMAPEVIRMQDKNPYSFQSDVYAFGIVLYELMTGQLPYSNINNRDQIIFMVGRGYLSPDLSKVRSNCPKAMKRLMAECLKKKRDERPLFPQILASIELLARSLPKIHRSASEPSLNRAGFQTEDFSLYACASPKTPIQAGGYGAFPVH
SMILES,"IC50 ([1]; Homo sapiens, 2 h) [nM]",IC50 [2] [nM],IC50 ([3]; Homo sapiens) [nM],"IC50 ([4]; Homo sapiens, MV4-11, 2 h) [nM]","IC50 ([5]; K562, 2 h) [nM]","IC50 [6, 8] [nM]",Selectivity ratio ([4]; MV4-11 cells),Selectivity ratio ([5]; K562 cells),"Selectivity ratio [6, 9]",also measured
"CNC(=O)Cc1nc(-c2cccc(NS(=O)(=O)c3c(F)cccc3F)c2F)c(-c2ccnc(Nc3ccccc3)n2)s1 [Compound 9, 2-(4-(3-(2,6-difluorophenylsulfonamido)-2-fluorophenyl)-5-(2-(phenylamino)pyrimidin-4-yl)thiazol-2-yl)-N-methylacetamide]",200 to 1000,< 200,< 200,> 1000,> 1000,10 to 100,,,,
"CC(C)(C)c1nc(-c2cccc(NS(=O)(=O)c3c(F)cccc3F)c2F)c(-c2ccnc(Nc3ccccc3)n2)s1 [Compound 1, N-(3-(2-(tert-butyl)-5-(2-(phenylamino)pyrimidin-4-yl)thiazol-4-yl)-2-fluorophenyl)-2,6-difluorobenzenesulfonamide]",< 200,200 to 1000,< 200,> 1000,> 1000,,125,8,8,"IC50 [7]: 10 to 100 nM; IC50 ([7]; read-out: IC50 LIMK1, Table 5, value reported in part II.1): 10 to 100 nM; selectivity ratio for LIMK1 over B-Raf ([6]; IC50 B-Raf (nM) divided by IC50 LIMK1 (nM)): about 20; IC50 ([6]; IC50 B-Raf, 120 μM ATP, Table 8): 10 to 100 nM; IC50 ([6]; IC50 B-Raf, Table 5): 500 to 5000 nM"
O=S(=O)(Nc1cccc(-c2nc(CCO)sc2-c2ccnc(Nc3ccccc3)n2)c1F)c1c(F)cccc1F [8 (Na)],,,,,,10 to 100,6,,9,"IC50 ([1]; 2 h): < 200 nM; IC50 [3]: < 200 nM; IC50 ([4]; MV4-11 cells, 2 h): > 1000 nM; IC50 ([7]; 15 μM ATP, Table 8, read-out: IC50 LIMK1): < 10 nM"
"O=S(=O)(Nc1cccc(-c2nc(CCO)sc2-c2ccnc(Nc3ccccc3)n2)c1F)c1c(F)cccc1F [Compound 8, 2,6-difluoro-N-(2-fluoro-3-(2-(2-hydroxyethyl)-5-(2-(phenylamino)pyrimidin-4-yl)thiazol-4-yl)phenyl)benzenesulfonamide]",,< 200,< 200,,,,4,20,,"IC50 ([1]; Homo sapiens, MV4-11, 2 h): 200 to 1000 nM; IC50 ([4]; Homo sapiens, MV4-11 cells, 2 h): > 1000 nM; IC50 ([5]; K562 cells, 2 h): 200 to 1000 nM; IC50 ([7]; 15 μM ATP, Table 2, read-out: IC50 LIMK1): < 10 nM"
